# In PubChem BioAssay AID687027 (Broad Institute, 2013):
# Tested on: RMG-I TPO-Luc reporter, SteadyGlo luminescence, 24 h
# Experiment: PAX8 transcriptional activity inhibition in RMG-I – RMG-I cells, luciferase, cherry-pick, dose response (AID 687027);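 note: potency for lowering reporter light which is read as Pax8 inhibition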
smiles,measurement,value
COC(C(=O)C(O)C(C)O)C1Cc2cc3cc(OC4CC(OC5CC(O)C(O)C(C)O5)C(O)C(C)O4)c(C)c(O)c3c(O)c2C(=O)C1OC1CC(OC2CC(OC3CC(O)C(OC)C(C)O3)C(O)C(C)O2)C(O)C(C)O1 (stereo unspecified),AC50,< 260 nM
